Source: publication PMC8376128 (CPT: Pharmacometrics & Systems Pharmacology, 2021)
Read-outs that look alike come from different tables or passages of the source.

Assays:
[1] = system: NSCLC tumors; details: cited from earlier work
[2] = system: NSCLC tumors; details: cited from earlier work; remark: listed apart in the source
[3] = Human PK model for AMG 510 fitted to digitized published clinical PK data; assay type: in vivo; details: AMG 510 (human)
[4] = patients with NSCLC, single agent

Compound	overall response rate (ORR) [1, 4]	dose-limiting toxicities ([1]; patients, phase I)	ORR reported ([2]; AMG 510 at 960 mg, patients with NSCLC) [%]	overall response rate (ORR) [2, 4]	dose-limiting toxicities ([2]; patients, phase I)	Fz (data), frequency in tumor size bin 0–0.3 ([2]; six weeks AMG 510)	Fz (data), frequency in tumor size bin 0.3–0.5 ([2]; six weeks AMG 510)	Fz (data), frequency in tumor size bin 0.5–0.7 ([2]; six weeks AMG 510)	Fz (data), frequency in tumor size bin 0.7–1 ([2]; six weeks AMG 510)	Fz (data), frequency in tumor size bin 1–1.2 ([2]; six weeks AMG 510)	N (data), number of patients in tumor size bin 0–0.3 ([2]; six weeks AMG 510)	N (data), number of patients in tumor size bin 0.3–0.5 ([2]; six weeks AMG 510)	N (data), number of patients in tumor size bin 0.5–0.7 ([2]; six weeks AMG 510)	N (data), number of patients in tumor size bin 0.7–1 ([2]; six weeks AMG 510)	N (data), number of patients in tumor size bin 1–1.2 ([2]; six weeks AMG 510)	ke [3] [day⁻¹]	V1 ([3]; assume 70 kg human) [L]	Vp ([3]; assume 70 kg human) [L]	ka ([3]; single dose 960 mg) [day⁻¹]
C=C(F)C(=O)N1CCN(c2nc(OC[C@@H]3CCCN3C)nc3c2CCN(c2cccc4cccc(Cl)c24)C3)C[C@@H]1CC#N [MRTX849, Adagrasib]	~ 50%	no dose‐limiting toxicities																	
C=CC(=O)N1CCN(c2nc(=O)n(-c3c(C)ccnc3C(C)C)c3nc(-c4c(O)cccc4F)c(F)cc23)[C@@H](C)C1 [AMG 510, Sotorasib]			50	~ 50%	no dose‐limiting toxicities	0.091	0.136	0.272	0.272	0.227	2	3	6	6	5	2.98	110	4.40	58.1
